In US20100267561A1, “HERBICIDAL PYRIDAZINONE DERIVATIVES” (priority 2007, published 2010):
Where two headings read alike, the source gives them in different places.

Assays:
Assay in all cases: Test B pre-/postemergence plant response
Format in all cases: in vivo
[1] = tested on: catchweed bedstraw (Galium aparine); settings: Galium aparine, pre-emergence, Preemergence, read-out: Plant response rating, Galium
Outline: (§1)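 Preemergence and postemergence (plants 2-18 cm, 1- to 4-leaf stage) applications used test chemicals in a non-phytotoxic solvent with surfactant. Plants were held in a greenhouse 13 to 15 days, then rated visually against controls on a 0-100 scale (0 no effect, 100 complete control).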

[2] = tested on: woolly cupgrass (Eriochloa villosa); settings: Eriochloa villosa, read-out: Plant response rating, Cupgrass, Woolly; for pest or weed control at 16 g/ha: 16 g ai/ha; for pest or weed control at 31 g/ha: 31 g ai/ha, 100 complete control; for pest or weed control at 62 g/ha: 62 g ai/ha; for pest or weed control at 125 g/ha: 125 g ai/ha
Outline: as §1

[3] = tested on: blackgrass (Alopecurus myosuroides); settings: Alopecurus myosuroides, read-out: Plant response rating, Blackgrass; for pest or weed control at 16 g/ha: 16 g ai/ha; for pest or weed control at 31 g/ha: 31 g ai/ha, 100 complete control; for pest or weed control at 62 g/ha: 62 g ai/ha; for pest or weed control at 125 g/ha: 125 g ai/ha
Outline: as §1

[4] = tested on: common ragweed (Ambrosia elation); settings: Ambrosia, read-out: Plant response rating, Ragweed; for pest or weed control at 16 g/ha: 16 g ai/ha; for pest or weed control at 31 g/ha: 31 g ai/ha, 100 complete control; for pest or weed control at 62 g/ha: 62 g ai/ha; for pest or weed control at 125 g/ha: 125 g ai/ha
Outline: as §1

[5] = tested on: goosegrass (Eleusine indica); settings: Eleusine indica, read-out: Plant response rating, Goosegrass; for pest or weed control at 16 g/ha: 16 g ai/ha; for pest or weed control at 31 g/ha: 31 g ai/ha, 100 complete control; for pest or weed control at 62 g/ha: 62 g ai/ha; for pest or weed control at 125 g/ha: 125 g ai/ha
Outline: as §1

kochia (Kochia scoparia) = settings: Postemergence
Outline: as §1

[6] = tested on: johnsongrass (Sorghum halepense); settings: Sorghum halepense, read-out: Plant response rating, Johnsongrass; for pest or weed control at 16 g/ha: 16 g ai/ha; for pest or weed control at 31 g/ha: 31 g ai/ha, 100 complete control; for pest or weed control at 62 g/ha: 62 g ai/ha; for pest or weed control at 125 g/ha: 125 g ai/ha
Outline: as §1

[7] = tested on: eastern black (E.B.) nightshade (Solanum ptycanthum); settings: Solanum, pre-emergence, Preemergence, read-out: Plant response rating, Nightshade, E. B.
Outline: as §1

soybean (Glycine max) = settings: Glycine max, read-out: Plant response rating, Soybean; for plant injury at 16 g/ha: 16 g ai/ha; for plant injury at 31 g/ha: 31 g ai/ha, 100 complete control; for plant injury at 62 g/ha: 62 g ai/ha; for plant injury at 125 g/ha: 125 g ai/ha
Outline: as §1

[8] = tested on: giant foxtail (Setaria faberii); settings: Setaria faberi, read-out: Plant response rating, Foxtail, Giant; for pest or weed control at 16 g/ha: 16 g ai/ha; for pest or weed control at 31 g/ha: 31 g ai/ha, 100 complete control; for pest or weed control at 62 g/ha: 62 g ai/ha; for pest or weed control at 125 g/ha: 125 g ai/ha
Outline: as §1

[9] = tested on: pigweed (Amaranthus retroflexus); settings: Amaranthus retroflexus, post-emergence, Postemergence, read-out: Plant response rating, Pigweed
Outline: as §1

[10] = tested on: Italian ryegrass (Lolium multiflorum); settings: Lolium multiflorum, read-out: Plant response rating, Ryegrass, Italian; for pest or weed control at 16 g/ha: 16 g ai/ha; for pest or weed control at 31 g/ha: 31 g ai/ha, 100 complete control; for pest or weed control at 62 g/ha: 62 g ai/ha; for pest or weed control at 125 g/ha: 125 g ai/ha
Outline: as §1

[11] = tested on: lambsquarters (Chenopodium album); settings: Chenopodium album, read-out: Plant response rating, Lambsquarters; for pest or weed control at 16 g/ha: 16 g ai/ha; for pest or weed control at 31 g/ha: 31 g ai/ha, 100 complete control; for pest or weed control at 125 g/ha: 125 g ai/ha
Outline: as §1

[12] = 31 g ai/ha, 0 to 100 scale, 0 no effect, 100 complete control
[13] = post-emergence, Postemergence, scale 0 to 100
[14] = post-emergence, Postemergence, scale 0 to 100, 0 no effect
[15] = pre-emergence, Preemergence, scale 0 to 100 (0 no effect, 100 complete control)
[16] = pre-emergence, Preemergence, 0 to 100 scale, 0 no effect
[17] = pre-emergence, Preemergence, scale 0 to 100
[18] = 31 g ai/ha, scale 0 to 100, 0 no effect, 100 complete control

For `CCc1cc(-c2ccc(C(F)(F)F)cc2)nn1-c1c(O)cnn(C)c1=O` [Compound 11, 4-[5-ethyl-3-[4-(trifluoromethyl)phenyl]-1H-pyrazol-1-yl]-5-hydroxy-2-methyl-3(2H)-pyridazinone], the pest or weed control at 16 g/ha ([1]; 16 g ai/ha, scale 0 to 100 (0 no effect, 100 complete control)) was 0%, the pest or weed control at 31 g/ha [1, 12] was 0% and the pest or weed control at 62 g/ha ([1]; 62 g ai/ha, scale 0 to 100) was 0%. The pest or weed control at 125 g/ha ([1]; 125 g ai/ha, scale 0 to 100) was 0%, the pest or weed control at 16 g/ha [2, 13] was 95% and the pest or weed control at 31 g/ha [2, 14] was 100%. It also gave a pest or weed control at 62 g/ha [2, 13] of 100%, a pest or weed control at 125 g/ha [2, 13] of 100% and a pest or weed control at 16 g/ha [2, 15] of 100%. The pest or weed control at 31 g/ha [2, 16] was 100%, the pest or weed control at 62 g/ha [2, 17] was 100% and the pest or weed control at 125 g/ha [2, 17] was 100%. It also gave a pest or weed control at 16 g/ha [3, 13] of 100%, a pest or weed control at 31 g/ha [3, 14] of 100% and a pest or weed control at 62 g/ha [3, 13] of 100%. It also gave a pest or weed control at 125 g/ha [3, 13] of 100%, a pest or weed control at 16 g/ha [3, 15] of 100% and a pest or weed control at 31 g/ha [3, 16] of 100%. It also gave a pest or weed control at 62 g/ha [3, 17] of 100%, a pest or weed control at 125 g/ha [3, 17] of 100% and a pest or weed control at 16 g/ha [4, 13] of 0%. For the same compound, the pest or weed control at 31 g/ha [4, 14] was 0%, the pest or weed control at 62 g/ha [4, 13] was 0% and the pest or weed control at 125 g/ha [4, 13] was 0%. It also gave a pest or weed control at 16 g/ha [4, 15] of 0%, a pest or weed control at 31 g/ha [4, 16] of 0% and a pest or weed control at 62 g/ha [4, 17] of 0%. The pest or weed control at 125 g/ha [4, 17] was 0%, the pest or weed control at 16 g/ha [5, 13] was 100% and the pest or weed control at 31 g/ha [5, 14] was 100%. It also gave a pest or weed control at 62 g/ha [5, 13] of 100%, a pest or weed control at 125 g/ha [5, 13] of 100% and a pest or weed control at 16 g/ha [5, 15] of 85%. It also gave a pest or weed control at 31 g/ha [5, 16] of 90%, a pest or weed control at 62 g/ha [5, 17] of 100% and a pest or weed control at 125 g/ha [5, 17] of 100%. For the same compound, the “Plant response rating, Kochia” value (kochia (Kochia scoparia); 16 g ai/ha, scale 0 to 100) was 0, the “Plant response rating, Kochia” value (kochia (Kochia scoparia); [18]) was 0 and the “Plant response rating, Kochia” value (kochia (Kochia scoparia); 62 g ai/ha, scale 0 to 100) was 0. For the same compound, the “Plant response rating, Kochia” value (kochia (Kochia scoparia); 125 g ai/ha, scale 0 to 100) was 0, the pest or weed control at 16 g/ha [6, 13] was 100% and the pest or weed control at 31 g/ha [6, 14] was 100%. The pest or weed control at 62 g/ha [6, 13] was 100%, the pest or weed control at 125 g/ha [6, 13] was 100% and the pest or weed control at 16 g/ha [6, 15] was 90%. For the same compound, the pest or weed control at 31 g/ha [6, 16] was 98%, the pest or weed control at 62 g/ha [6, 17] was 100% and the pest or weed control at 125 g/ha [6, 17] was 100%. The pest or weed control at 31 g/ha [7, 12] was 0%, the pest or weed control at 62 g/ha ([7]; 62 g ai/ha, scale 0 to 100) was 0% and the pest or weed control at 125 g/ha ([7]; 125 g ai/ha, scale 0 to 100) was 0%. It also gave a plant injury at 16 g/ha (soybean (Glycine max); [13]) of 0%, a plant injury at 31 g/ha (soybean (Glycine max); [14]) of 0% and a plant injury at 62 g/ha (soybean (Glycine max); [13]) of 0%. It also gave a plant injury at 125 g/ha (soybean (Glycine max); [13]) of 0%, a plant injury at 16 g/ha (soybean (Glycine max); [15]) of 0% and a plant injury at 31 g/ha (soybean (Glycine max); [16]) of 0%. The plant injury at 62 g/ha (soybean (Glycine max); [17]) was 0%, the plant injury at 125 g/ha (soybean (Glycine max); [17]) was 0% and the pest or weed control at 16 g/ha [8, 13] was 100%. The pest or weed control at 31 g/ha [8, 14] was 100%, the pest or weed control at 62 g/ha [8, 13] was 100% and the pest or weed control at 125 g/ha [8, 13] was 100%. The pest or weed control at 16 g/ha [8, 15] was 90%, the pest or weed control at 31 g/ha [8, 16] was 90% and the pest or weed control at 62 g/ha [8, 17] was 100%. The pest or weed control at 125 g/ha [8, 17] was 100%, the pest or weed control at 16 g/ha ([9]; 16 g ai/ha, scale 0 to 100) was 0% and the pest or weed control at 31 g/ha [9, 18] was 0%. It also gave a pest or weed control at 62 g/ha ([9]; 62 g ai/ha, scale 0 to 100) of 0%, a pest or weed control at 125 g/ha ([9]; 125 g ai/ha, scale 0 to 100) of 5% and a pest or weed control at 16 g/ha [10, 13] of 100%. For the same compound, the pest or weed control at 31 g/ha [10, 14] was 100%, the pest or weed control at 62 g/ha [10, 13] was 100% and the pest or weed control at 125 g/ha [10, 13] was 100%. It also gave a pest or weed control at 16 g/ha [10, 15] of 90%, a pest or weed control at 31 g/ha [10, 16] of 100% and a pest or weed control at 62 g/ha [10, 17] of 100%. It also gave a pest or weed control at 125 g/ha [10, 17] of 100%, a pest or weed control at 16 g/ha [11, 13] of 0% and a pest or weed control at 31 g/ha [11, 14] of 0%. It also gave a pest or weed control at 62 g/ha ([11]; post-emergence, Postemergence, 62 g ai/ha, scale 0 to 100) of 0%, a pest or weed control at 125 g/ha [11, 13] of 0% and a pest or weed control at 16 g/ha [11, 15] of 0%. For the same compound, the pest or weed control at 31 g/ha [11, 16] was 0% and the pest or weed control at 125 g/ha [11, 17] was 0%.
